Results published in patent publication US10449156B2, “Controlled release system including a gas or volatile encapsulated in a polymeric support and a matrix system, a method of preparing the system, and their use” (priority 2014, dated 2019).

Legend:
Botrytis cinerea spores = assay: Botrytis cinerea spore (conidia) germination assay; assay type: cell-based; conditions: pure PEA; 14 hours at 4° C.; absorbance 570 nm
Protocol: In this point, the PEA volatile compound effect was tested in B.c. spores germination. The assay consisted in inoculate B.c. spores in 100 μL of malt yeast nutritive media (ML, 0.3% malt and 0.2% yeast extract), using 40 μL of a B.c. spore suspension with a 10^5 spores/mL concentration. Resuspended spores in ML media were transferred to sterile multiwall plates (140 μL/well) and then these plates were put in a hermetic and sealed container during a definite time, in dark and at 4° C. The necessary time to detect maximum germination was experimentally determined by conducting a germination kinetic assay for each B.c. strain. Measurements were done every 2 hours up until 16 hours, thus finding the maximum germination between 14 and 16 hours. The methodology used in the laboratory consisted in a spore fixation/staining process in each well, using trichloroacetic acid and sulphododamyne B, that allowed for a direct correlation between the obtained absorbance values (at 570 nm) with germinated spore number. The first experimental group was assayed without volatile compounds and was used as control (n=4), the experiment was done in sealed hermetic containers at 4° C. for 14 hours (100% of spore germination).

Botrytis cinerea = Botrytis cinerea radial growth bioassay with volatile compounds, no direct contact; assay type: cell-based; conditions: for effect on B.c. radial growth: pure compound 6, 30 and 61 μL, four strains, PDA
Protocol: PHBV and PEA microparticle synthesis was done by double emulsion/evaporation. Experimentally, 15 mg of PEA were added to 50 mg/mL PHBV solution in dichloromethane, and then 30 μL of distilled water. This mixture was emulsified with a homogenizer at 35,000 rpm during 30 seconds. To this emulsion, a 5% w/v polyvinyl alcohol was added, and it was homogenized at 35.000 rpm for 30 seconds. The result of this double emulsion was put in an orbital shaker for 12 hours at 100 rpm. Once the solvent evaporated, the microparticles were isolated by centrifugation, washed with distilled water and lyophilized. Subsequently, the assays described below were done.
The experimental model consisted in testing in vitro both the pure and microencapsulated phenylethylalcohol (PEA) volatile compound effect in B.c. The reporting parameter was radial growth and the volatile compound doses were determined with in vitro assays (bioassays). To do this, four different Botrytis strains were exposed to the pure compound, but without direct contact between compound and microorganism.
Bioassays were done in hermetic containers during 6 days at 4° C. (simulating storage conditions). It was previously determined that, for all the strains in study, they were able to cover almost completely the maximum container area (33 mm diameter), in 6 days. The hermetic container was assembled in such a way that there is no physical contact between the evaluated compounds and B.c, in any circumstances.
Radial growth was quantified in three independent experimental groups, which were assayed using potato dextrose agar (PDA) as nutritive support and, after the established culture conditions, initial inoculum growth diameter was determined as 7 mm (disk with actively growing B.c. using PDA as support). The first group was assayed in the container, in absence of a volatile compound and was used as control group (n=4). The second group was assayed challenging the B.c. inoculum with different PEA quantities (6, 30 y 61 μL), separately, with the same culture conditions (n=4). Finally, the third group was assayed like the second group, but with PHBV microencapsulated PEA in defined concentrations (n=2).

Structure (SMILES)	effect on Botrytis conidia germination (Botrytis cinerea spores)	effect on B.c. radial growth, statistics (ANOVA, TUKEY, p<0.05) (Botrytis cinerea; 30 and 61 μL doses, all strains, 6 days at 4° C.)	B.c. growth at higher doses (Botrytis cinerea; doses higher than 61 μL, 6 days)	effect on B.c. radial growth (Botrytis cinerea; 6 days at 4° C.)
OCCc1ccccc1 [PEA, phenylethylalcohol]	does not inhibit Botrytis conidia germination in the same way that it inhibited micellium growth	statistically significant effect in all of the strains	not a measurable growth after 6 days	has an inhibiting effect in all the assayed B.c. strains
CCCCCC1CCCC(=O)O1 (stereo not drawn) [d-Lac, delta-decalactone]				does not present a statistically significative effect
